These results are taken from US20190142718A1, “NOVEL USE” (DSM IP ASSETS B.V., priority 2017, published 2019).

Experiment in all cases: Antimicrobial efficacy, challenge test in analogy to NF EN ISO11930
The test system of one assay is P. Acnes. Format: cell-based, Propionibacterium acnes. On the procedure:
(§1) The antimicrobial efficacy is assessed in analogy to the regulatory challenge test method (NF EN IS011930). Thus, a solution of 0.2 wt.-% of phytantriol in a physiological serum with 0.85 wt.-% NaCl supplemented with 10 wt.-% ethanol was prepared. A control was also prepared under sterile conditions based on a serum with 0.85 wt.-% NaCl and 10 wt.-% ethanol.
(§2) The control as well as the phytantriol solution were deposed in 96-deep well plates (1.6 ml/well). The wells were contaminated with the respective bacterial or the fungal strains as outlined in table 1 at 2.5*10^5 to 5.6*10^5 cfu/ml for the bacteria and 1*10^4 to 2.5*10^4 cfu/ml for the fungi to obtain the initial contamination as outlined in table 1. After the contamination, each well was thoroughly mixed to ensure a homogeneous distribution of the microorganism. Then each plate was incubated at 22° C. for 24h. The counting of the (remaining) population was carried out 24h after contamination.

For a further assay, the system named is S. epidermidis. In kind it is cell-based, Staphylococcus epidermidis. On the procedure: as §1, §2
For the next assay, the system named is M. furfur. In kind it is cell-based, Malassezia furfur. On the procedure: as §1, §2
Another assay relates to A. brasiliensis. Format: cell-based, Aspergillus brasiliensis. As for the experimental part: as §1, §2
A further assay relates to S. aureus. In kind it is cell-based, Staphylococcus aureus. As for the experimental part:
as §1, §2

Another assay has as its system C. albicans. In kind it is cell-based, Candida albicans. As for the experimental part: as §1, §2

On to `CC(C)CCCC(C)CCCC(C)CCCC(C)(O)C(O)CO` (stereo not drawn) [Phytantriol, 3,7,11,15-tetramethyl-hexadecane-1,2,3-triol], for which the “colony counts 24 h” value in the assay with P. Acnes (0.2 wt.-% phytantriol in 0.85 wt.-% NaCl serum with 10 wt.-% ethanol, 22° C., 24 h after contamination, 0 h count 310000, control 24 h 30000) came to 28000 cfu/ml; in the assay with S. epidermidis (0.2 wt.-% phytantriol in 0.85 wt.-% NaCl serum with 10 wt.-% ethanol, 22° C., 24 h after contamination, 0 h count 560000, control 24 h 28000) it was 0 cfu/ml; with M. furfur (0.2 wt.-% phytantriol in 0.85 wt.-% NaCl serum with 10 wt.-% ethanol, 22° C., 24 h after contamination, 0 h count 4000, control 24 h 775), 0 cfu/ml; in the assay with A. brasiliensis (0.2 wt.-% phytantriol in 0.85 wt.-% NaCl serum with 10 wt.-% ethanol, 22° C., 24 h after contamination, 0 h count 10000, control 24 h 1000) it was 10 cfu/ml; with S. aureus (0.2 wt.-% phytantriol in 0.85 wt.-% NaCl serum with 10 wt.-% ethanol, 22° C., 24 h after contamination, 0 h count 250000, control 24 h 280000), 0 cfu/ml; in the assay on C. albicans (0.2 wt.-% phytantriol in 0.85 wt.-% NaCl serum with 10 wt.-% ethanol, 22° C., 24 h after contamination, 0 h count 25000, control 24 h 5000), 1000 cfu/ml. Further, the antimicrobial effect result in the assay with P. Acnes (against Propionibacterium acnes, 0.2 wt.-%, 24 h) is on record as “significant antimicrobial effect”; in the assay on S. epidermidis (against Staphylococcus epidermidis, 0.2 wt.-%, 24 h) it was “significant antimicrobial effect”; in the assay on M. furfur (against Malassezia furfur, 0.2 wt.-%, 24 h), “significant antimicrobial effect”; in the assay on A. brasiliensis (against Aspergillus brasiliensis, 0.2 wt.-%, 24 h), “significant antimicrobial effect”; in the assay with S. aureus (against Staphylococcus aureus, 0.2 wt.-%, 24 h), “significant antimicrobial effect”; in the assay on C. albicans (against Candida albicans, 0.2 wt.-%, 24 h), “significant antimicrobial effect”.
